According to patent publication US9737075B2, “Synergistic benzoxaborole-containing anti-fungicidal composition” (The Penn State Research Foundation, priority 2015, dated 2017):
Values after ≈ are worked out from the molar mass of the structure shown. Like-named read-outs stand apart in the source and are kept apart here.

What was measured:
Format in all cases: cell-based
Fusarium graminearum = assay: microbe, parasite or virus in culture; conditions: Fusarium graminearum, 72 h, read-out: Independent MIC
Aspergillus niger = assay: Broth microdilution MIC of individual antifungals; conditions: read-out: Independent MIC
Sclerotinia homoeocarpa = assay: Broth microdilution MIC of individual antifungals; conditions: Sclerotinia homoeocarpa, individual antifungal, 25% PDB, about 25° C., 72 hours, range over N independent triplicate studies; for MIC: Clarireedia homoeocarpa, read-out: Independent MIC
Botrytis cinerea 10-1728 = assay: Broth microdilution MIC of individual antifungals; conditions: Botrytis cinerea 10-1728, individual antifungal, 25% PDB, about 25° C., 72 hours, range over N independent triplicate studies; for MIC: 101728, read-out: Independent MIC
Mucor sp. = assay: Broth microdilution MIC of individual antifungals; conditions: individual antifungal, 25% PDB, about 25° C., 72 hours, range over N independent triplicate studies
Magnaporthe grisea = assay: microbe, parasite or virus in culture; conditions: Pyricularia oryzae, 72 h, read-out: Independent MIC
Phytophthora pini = assay: Broth microdilution MIC of individual antifungals; conditions: individual antifungal, 25% PDB, about 25° C., 72 hours, range over N independent triplicate studies
[1] = tested on: Mycosphaerella zeae-maydis; assay: Broth microdilution MIC of individual antifungals; conditions: Didymella maydis, individual antifungal, 25% PDB, about 25° C., 72 hours, range over N independent triplicate studies
Aspergillus flavus = assay: Broth microdilution MIC of individual antifungals; conditions: individual antifungal, 25% PDB, about 25° C., 72 hours, range over N independent triplicate studies, read-out: Independent MIC
Aspergillus fumigatus = assay: Broth microdilution MIC of individual antifungals; conditions: individual antifungal, 25% PDB, about 25° C., 72 hours, range over N independent triplicate studies, read-out: Independent MIC
Fusarium verticillioides = assay: Broth microdilution MIC of individual antifungals; conditions: individual antifungal, 25% PDB, about 25° C., 72 hours, range over N independent triplicate studies, read-out: Independent MIC
Alternaria solani = assay: Broth microdilution MIC of individual antifungals; conditions: individual antifungal, 25% PDB, about 25° C., 72 hours, range over N independent triplicate studies; for MIC: read-out: Independent MIC
Candida albicans = assay: Broth microdilution MIC of individual antifungals; conditions: individual antifungal, 25% PDB, about 25° C., 72 hours, range over N independent triplicate studies, read-out: Independent MIC
Penicillium chrysogenum = assay: Broth microdilution MIC of individual antifungals; conditions: read-out: Independent MIC
[2] = tested on: Colletotrichum orbiculare; assay: Broth microdilution MIC of individual antifungals; conditions: read-out: Independent MIC
Rhizopus sp. = assay: Broth microdilution MIC of individual antifungals; conditions: Rhizopus, 72 h, read-out: Independent MIC
Rhizoctonia solani = assay: Broth microdilution MIC of individual antifungals; conditions: individual antifungal, 25% PDB, about 25° C., 72 hours, range over N independent triplicate studies, read-out: Independent MIC
Aureobasidium pullulans = assay: Broth microdilution MIC of individual antifungals; conditions: 72 h, read-out: Independent MIC
Botrytis cinerea B17 = assay: Broth microdilution MIC of individual antifungals; conditions: Botrytis cinerea, B17, 72 h, read-out: Independent MIC
Stachybotrys chartarum = assay: Broth microdilution MIC of individual antifungals; conditions: 72 h, read-out: Independent MIC
[3] = individual antifungal, 25% PDB, about 25° C., 72 hours, range over N independent triplicate studies
[4] = Rhizopus sp., individual antifungal, 25% PDB, about 25° C., 72 hours, range over N independent triplicate studies

OB1OCc2ccccc21 [BO, 2-(hydroxymethyl)benzene boronic acid hemiester]
MIC (Fusarium graminearum): 2 to 4 µg/mL (≈ 14.9 to 29.9 µM)

O=C(Nc1ccccc1-c1ccc(Cl)cc1)c1cccnc1Cl [Boscalid, boscalid]
MIC (Aspergillus niger; [3]): 0.39 to 0.5 µg/mL
MIC (Sclerotinia homoeocarpa): 0.8 µg/mL
MIC (Botrytis cinerea 10-1728): 3.12 to 6.25 µg/mL

CCCCc1c(C)nc(NCC)nc1OS(=O)(=O)N(C)C [Bupirimate]
MIC (Sclerotinia homoeocarpa): 50 to 100 µg/mL
MIC (Botrytis cinerea 10-1728): 100 µg/mL
MIC (Mucor sp.): 100 µg/mL
MIC (Magnaporthe grisea): 50 µg/mL (≈ 158 µM)
MIC (Phytophthora pini): 50 µg/mL

COC(=O)Nc1nc2ccccc2[nH]1 [Carbendazim, carbendazim]
MIC [1]: 1.56 to 2 µg/mL
MIC (Aspergillus flavus): 0.78 to 3.12 µg/mL
MIC (Aspergillus fumigatus): 1.56 to 3.12 µg/mL
MIC (Aspergillus niger; 72 h): 1 to 1.56 µg/mL
MIC (Sclerotinia homoeocarpa): 0.05 to 0.1 µg/mL
MIC (Fusarium graminearum): 1.56 µg/mL (≈ 8.16 µM)
MIC (Fusarium verticillioides): 3.12 to 4 µg/mL
MIC (Magnaporthe grisea): 0.39 to 0.78 µg/mL (≈ 2.04 to 4.08 µM)

Cc1cc(C2CC2)nc(Nc2ccccc2)n1 [Cyprodinil, cyprodinil]
MIC [1]: 1.56 µg/mL
MIC (Alternaria solani): 100 µg/mL
MIC (Aspergillus flavus): 0.75 to 1.56 µg/mL
MIC (Aspergillus niger; [3]): 3.12 µg/mL
MIC (Sclerotinia homoeocarpa): 0.39 µg/mL
MIC (Botrytis cinerea 10-1728): 50 to 100 µg/mL
MIC (Candida albicans): 50 µg/mL
MIC (Fusarium graminearum): 200 µg/mL (≈ 888 µM)
MIC (Fusarium verticillioides): 100 to 200 µg/mL
MIC (Mucor sp.): 50 µg/mL
MIC (Penicillium chrysogenum; [3]): 0.025 to 0.048 µg/mL
MIC [2, 3]: 100 to 200 µg/mL

CCOc1ccc(NC(=O)OC(C)C)cc1OCC [Diethofencarb, diethofencarb]
MIC (Sclerotinia homoeocarpa): 100 to 200 µg/mL
MIC (Botrytis cinerea 10-1728): 1.5 to 1.56 µg/mL
MIC (Mucor sp.): 100 to 200 µg/mL

COc1ccc(C(=CC(=O)N2CCOCC2)c2ccc(Cl)cc2)cc1OC [Dimethomorph, dimethomorph]
MIC (Botrytis cinerea 10-1728): 100 to 200 µg/mL
MIC (Mucor sp.): 200 to 400 µg/mL

CCCCc1c(C)nc(NCC)[nH]c1=O [Ethirimol, ethirimol]
MIC [1]: 400 µg/mL
MIC (Sclerotinia homoeocarpa): 200 µg/mL
MIC (Botrytis cinerea 10-1728): 200 to 400 µg/mL
MIC (Phytophthora pini): 200 µg/mL

CSC1=N[C@@](C)(c2ccccc2)C(=O)N1Nc1ccccc1 [Fenamidone, fenamidone]
MIC [1]: 50 to 200 µg/mL
MIC (Alternaria solani): 100 to 200 µg/mL
MIC (Sclerotinia homoeocarpa): 100 to 200 µg/mL
MIC (Botrytis cinerea 10-1728): 100 µg/mL
MIC (Mucor sp.): 50 to 200 µg/mL

CC(Oc1ccc(Cl)cc1Cl)C(=O)NC(C)(C#N)C(C)C (stereo not shown) [Fenoxanil, fenoxanil]
Independent MIC (Alternaria solani): 200 µg/mL
Independent MIC (Sclerotinia homoeocarpa): 200 µg/mL
Independent MIC (Botrytis cinerea 10-1728): (100-200) μg/mL
Independent MIC (Mucor sp.): (50-100) μg/mL

O=[N+]([O-])c1cc(C(F)(F)F)c(Cl)c([N+](=O)[O-])c1Nc1ncc(C(F)(F)F)cc1Cl [Fluazinam, fluazinam]
MIC [1]: 1 to 1.56 µg/mL
MIC (Alternaria solani): 0.5 to 0.78 µg/mL
MIC (Aspergillus niger; [3]): 3.12 µg/mL
MIC (Sclerotinia homoeocarpa): 3.12 to 6.25 µg/mL
MIC (Botrytis cinerea 10-1728): 1 to 1.56 µg/mL
MIC (Fusarium verticillioides): 12.5 µg/mL
MIC (Rhizopus sp.; [4]): 0.2 to 0.78 µg/mL
MIC (Mucor sp.): 0.78 to 1 µg/mL
MIC (Phytophthora pini): 3.12 µg/mL
MIC (Rhizoctonia solani): 6.25 to 25 µg/mL

N#Cc1c[nH]cc1-c1cccc2c1OC(F)(F)O2 [Fludioxonil, fludioxonil]
MIC [1]: 2 µg/mL
MIC (Aureobasidium pullulans): 3 to 3.12 µg/mL
MIC (Aspergillus fumigatus): 0.25 to 1 µg/mL
MIC (Sclerotinia homoeocarpa): 0.125 to 0.25 µg/mL
MIC (Botrytis cinerea 10-1728): 0.5 to 0.78 µg/mL
MIC (Botrytis cinerea B17): 0.5 µg/mL
MIC (Fusarium graminearum): 50 µg/mL (≈ 201 µM)
MIC (Stachybotrys chartarum): 2 µg/mL
MIC (Rhizopus sp.): 50 to 80 µg/mL
MIC (Magnaporthe grisea): 0.16 to 0.31 µg/mL (≈ 0.645 to 1.25 µM)
MIC (Phytophthora pini): 200 µg/mL
MIC (Penicillium chrysogenum; 72 h): 0.012 to 0.048 µg/mL
MIC ([2]; 72 h): 0.195 to 0.39 µg/mL

O=C(NCCc1ncc(C(F)(F)F)cc1Cl)c1ccccc1C(F)(F)F [Fluopyram, fluopyram]
MIC (Aspergillus flavus): 200 µg/mL
MIC (Aspergillus fumigatus): 3.12 to 6.25 µg/mL
MIC (Aspergillus niger; [3]): 0.78 to 1.56 µg/mL
MIC (Sclerotinia homoeocarpa): 0.78 to 3.12 µg/mL
MIC (Botrytis cinerea 10-1728): 1.56 to 4 µg/mL
MIC (Rhizopus sp.; [4]): 200 µg/mL
MIC (Mucor sp.): 200 µg/mL
MIC (Penicillium chrysogenum; [3]): 0.1 to 0.4 µg/mL

CC(C)Oc1cccc(NC(=O)c2ccccc2C(F)(F)F)c1 [Flutolanil, flutolanil]
MIC (Botrytis cinerea 10-1728): 400 µg/mL
